Assay results: patent US10493029B2, “Ziyuglycoside II polymer micelle and preparative methods thereof” (SICHUAN INLU WEITE PHARMACEUTICAL TECHNOLOGY CO., LTD., priority 2016, dated 2019)

Test system: bone marrow suppression induced by cyclophosphamide in KM-mice
Test: Pharmacodynamic experiment: cyclophosphamide-induced bone marrow suppression, peripheral blood counts
Format: in vivo
Description: 1. Experimental Materials, Reagents, Apparatus
Test drugs were ziyuglycoside II micelles and ziyuglycoside II powder.
Tool drug was cyclophosphamide.
Laboratory animals were KM-mice: 18.5-22.5 g.
Laboratory apparatus: Automatic blood counting analyzer; BS-600L electronic balance: specification: 600 g/0.1 g, Shanghai Yousheng Weighing Apparatus Co. Ltd.
Statistical analysis was performed using SPSS 17.0 software. Data were expressed as mean±standard error (x±S), and one-factor analysis of variance was used among groups. For homogeneity of variance, data between groups were compared by LSD test, while for heterogeneity of variance, data between groups were compared by Tamhane's T2 test.
After all animals were adaptively fed for one week, according to the body weight, animals were randomly divided as blank group; model group; ziyuglycoside II micelle sample groups 1-4 (respectively using micelles prepared in examples 1-4), with a dosage of 2.5 mg·kg^−1, preparation before use; ziyuglycoside II group: powder of ziyuglycoside II raw materials, dissolved in 10% DMSO-normal saline, with a dosage of 2.5 mg·kg^−1, preparation before use. On the first day of experiment, except for blank group, mice in other groups received cyclophosphamide normal saline solution at a dose of 120 mg·kg^−1 by peritoneal injection, and mice in blank group received the same volume of normal saline by peritoneal injection.
From the first day of experiment, each experimental group was given the corresponding drug as the predetermined dosage and administration mode, and mice in blank group and model group were given a same volume of normal saline by injection into the tail vein, for successive 6 days.
On the seventh day of experiment, whole blood was collected from orbit of mice in each experimental group, and placed in 0.5 ml EP tubes containing EDTA anticoagulant agent for test.
White blood cells (WBC), neutrophilic granulocytes (NEUT), red blood cells (RBC), platelets (PLT), and hemoglobin (HGB) in peripheral blood of mice in each experimental group were counted using automatic blood counting instrument.

[1] = cyclophosphamide 120 mg/kg i.p. day 1, drug 2.5 mg/kg for 6 days, blood on day 7, mean±standard error

## C[C@@H]1CC[C@]2(C(=O)O)CC[C@]3(C)C(=CC[C@@H]4[C@@]5(C)CC[C@H](O[C@@H]6OC[C@H](O)[C@H](O)[C@H]6O)C(C)(C)[C@@H]5CC[C@]43C)[C@@H]2[C@]1(C)O [Ziyuglycoside II, 3-O-α-L-arabinosyl-19α-hydroxyurs-12-en-28-oic acid]
2.5 mg/kg, P<0.05
  numbers of NEUT and HGB in peripheral blood compared with model group: did not show significant difference
  numbers of WBC, RBC, and PLT in peripheral blood compared with model group: did not show significant difference
[1]
  HGB in peripheral blood: 44.65 ± 7.27 g/L
  NEUT in peripheral blood: 2.47 ± 0.55 ×10^9
  PLT in peripheral blood: 221.18 ± 6.15 ^ ×10^9
  RBC in peripheral blood: 3.54 ± 0.11 ×10^12
  WBC in peripheral blood: 3.71 ± 0.13 ×10^9
